Data reported in publication PMC10683025, “Discovery of a Hydroxylamine-Based Brain-Penetrant EGFR Inhibitor for Metastatic Non-Small-Cell Lung Cancer” (Journal of Medicinal Chemistry, 2023).
Read-outs that look alike come from different tables or passages of the source.

What was measured:
[1] = target: T1, ABL1(Q252H)-nonphosphorylated (Homo sapiens, UniProt P00519, Q252H); experiment: KINOMEScan; format: binding; conditions: read-out: Percent Control
T1 construct: purchased Eurofins DiscoverX
Excerpt: (§1) Percent control was mapped onto the kinome tree using TREEspot.

[2] = Brain tissue binding by equilibrium dialysis; format: in vitro ADME, mouse
Protocol: Plasma protein binding and brain tissue binding were determined by Pharmaron, Inc. using the equilibrium dialysis method. […] Following incubation, the samples were analyzed by LC-MS/MS and the concentrations of the compounds were determined in the buffer and plasma solution chambers.

[3] = target: T2, AURKB (Homo sapiens, UniProt Q96GD4); experiment: KINOMEScan; format: binding; conditions: read-out: Percent Control
T2 construct: purchased Eurofins DiscoverX (KINOMEscan)

[4] = target: T3, ALK(L1196M) (Homo sapiens, UniProt Q9UM73, L1196M); experiment: KINOMEScan; format: binding; conditions: read-out: Percent Control
T3 construct: purchased Eurofins DiscoverX (KINOMEscan)
Excerpt: as §1

[5] = target: T4, ACVR1B (Homo sapiens, UniProt P36896); experiment: KINOMEScan; format: binding; conditions: read-out: Percent Control
T4 construct: purchased Eurofins DiscoverX
Excerpt: as §1

[6] = target: T5, ABL1(T315I)-phosphorylated (Homo sapiens, UniProt P00519, T315I); experiment: KINOMEScan; format: binding; conditions: read-out: Percent Control
T5 construct: purchased Eurofins DiscoverX
Excerpt: as §1

[7] = target: T6, ASK1 (Homo sapiens, UniProt Q99683); experiment: KINOMEScan; format: binding; conditions: ASK1, 1 µM; read-out: Percent Control
T6 construct: purchased Eurofins DiscoverX (KINOMEscan)

[8] = target: T7, AMPK-alpha1 (Homo sapiens, UniProt Q13131); experiment: KINOMEScan; format: binding; conditions: AMPK-alpha1, 1 µM; read-out: Percent Control
T7 construct: purchased Eurofins DiscoverX (KINOMEscan)
Excerpt: as §1

[9] = target: T8, ARK5 (Homo sapiens, UniProt O60285); experiment: KINOMEScan; format: binding; conditions: ARK5, 1 µM; read-out: Percent Control
T8 construct: purchased Eurofins DiscoverX (KINOMEscan)
Excerpt: as §1

[10] = target: T9, ABL1-nonphosphorylated (Homo sapiens, UniProt P00519); experiment: KINOMEScan; format: binding; conditions: read-out: Percent Control
T9 construct: purchased Eurofins DiscoverX
Excerpt: as §1

[11] = target: T10, ACVR2A (Homo sapiens, UniProt P27037); experiment: KINOMEScan; format: binding; conditions: read-out: Percent Control
T10 construct: purchased Eurofins DiscoverX (KINOMEscan)
Excerpt: as §1

[12] = target: T11, BMX (Homo sapiens, UniProt P51813); experiment: KINOMEScan; format: binding; conditions: read-out: Percent Control
T11 construct: purchased Eurofins DiscoverX (KINOMEscan)
Excerpt: as §1

[13] = target: T12, WNK3 (Homo sapiens, UniProt Q9BYP7); experiment: KINOMEScan; format: binding; conditions: WNK3, 1 µM; read-out: Percent Control
T12 construct: purchased Eurofins DiscoverX
Excerpt: as §1

[14] = Oral CNS pharmacokinetic assessment; format: in vivo, CD1 mice; conditions: male, CD1, brain/plasma, Mouse 40 mg/kg (PO)
Protocol: Animal experiments were performed at Pharmaron, Inc. and animal use was approved by Pharmaron’s Institutional Animal Care and Use Committee (IACUC) in Pharmaron (Pharmaron IACUC, Protocol #PK-M-07182022, #PK-R-06012022, and #ON-CELL-XEN-06012022) following the guidance of AAALAC. Six- to eight-week-old male Sprague-Dawley rats (approximately 200–300 g) obtained from Si Bei Fu Laboratory Animal Technology Co., six- to eight-week-old male CD1 mice (approximately 20–30 g) obtained from Si Bei Fu Laboratory Animal Technology Co., and six- to eight-week-old female BALB/c nude mice (approximately 20–30 g) obtained from Si Bei Fu Laboratory Animal Technology Co., were used in the pharmacokinetic studies. Six- to eight-week-old female BALB/c nude mice (approximately 18–22 g) obtained from Beijing Anikeeper Biotech Co., Ltd. were used in the intracranial PDX study. […]
Oral CNS pharmacokinetic assessment of 9 was done by oral gavage (formulation: 1% methylcellulose) followed by blood and brain sampling at 7 time points (0.25, 0.5, 1, 2, 4, 8, 24 h post dose) with n = 3 animals per time point (n = 21 total). […] Concentrations of 9 in the plasma and brain samples were determined using LC-MS/MS and WinNonlin 8.3 (Phoenix) was used for pharmacokinetic calculations. […]

[15] = target: T13, YSK4 (Homo sapiens, UniProt Q56UN5); experiment: KINOMEScan; format: binding; conditions: YSK4, 1 µM; read-out: Percent Control
T13 construct: purchased Eurofins DiscoverX (KINOMEScan service)

[16] = target: T14, ABL1(M351T)-phosphorylated (Homo sapiens, UniProt P00519, M351T); experiment: KINOMEScan; format: binding; conditions: read-out: Percent Control
T14 construct: purchased Eurofins DiscoverX
Excerpt: as §1

[17] = target: T15, ADCK4 (Homo sapiens, UniProt Q96D53); experiment: KINOMEScan; format: binding; conditions: ADCK4, 1 µM; read-out: Percent Control
T15 construct: purchased Eurofins DiscoverX (KINOMEscan)
Excerpt: as §1

[18] = target: T16, CYP2C9 (Homo sapiens, UniProt P11712); format: in vitro ADME; conditions: liver microsomes
T16 construct: tissue BD Gentest; host or cells: pooled human liver microsomes
Protocol: The activities tested were CYP1A2-mediated phenacetin O-demethylation, CYP2C19-mediated (S)-mephenyotin 4′-hydroxylation, CYP2C9-mediated diclofenac 4′-hydroxylation, CYP2D6-mediated dextromethorphan O-demethylation, and CYP3A4-mediated midazolam 1′-hydroxylation. […] The reactions were initiated by adding NADPH (1 mM final concentration) after a 5 min preincubation, and the assay was run in duplicate (n = 2). Samples were analyzed by ultra-performance liquid chromatography tandem mass spectrometry (UPLC-MS/MS).

[19] = target: T17, BMPR2 (Homo sapiens, UniProt Q13873); experiment: KINOMEScan; format: binding; conditions: BMPR2, 1 µM; read-out: Percent Control
T17 construct: purchased Eurofins DiscoverX (KINOMEscan)
Excerpt: as §1

[20] = target: T18, BRK (Homo sapiens, UniProt Q13882); experiment: KINOMEScan; format: binding; conditions: read-out: Percent Control
T18 construct: purchased Eurofins DiscoverX (KINOMEscan)
Excerpt: as §1

[21] = target: T19, BMPR1B (Homo sapiens, UniProt O00238); experiment: KINOMEScan; format: binding; conditions: read-out: Percent Control
T19 construct: purchased Eurofins DiscoverX (KINOMEscan)
Excerpt: as §1

[22] = target: T20, ABL2 (Homo sapiens, UniProt P42684); experiment: KINOMEScan; format: binding; conditions: ABL2, 1 µM; read-out: Percent Control
T20 construct: purchased Eurofins DiscoverX
Excerpt: as §1

[23] = CD-1, mouse, mouse brain homogenate

T19 sequence (O00238 14-502): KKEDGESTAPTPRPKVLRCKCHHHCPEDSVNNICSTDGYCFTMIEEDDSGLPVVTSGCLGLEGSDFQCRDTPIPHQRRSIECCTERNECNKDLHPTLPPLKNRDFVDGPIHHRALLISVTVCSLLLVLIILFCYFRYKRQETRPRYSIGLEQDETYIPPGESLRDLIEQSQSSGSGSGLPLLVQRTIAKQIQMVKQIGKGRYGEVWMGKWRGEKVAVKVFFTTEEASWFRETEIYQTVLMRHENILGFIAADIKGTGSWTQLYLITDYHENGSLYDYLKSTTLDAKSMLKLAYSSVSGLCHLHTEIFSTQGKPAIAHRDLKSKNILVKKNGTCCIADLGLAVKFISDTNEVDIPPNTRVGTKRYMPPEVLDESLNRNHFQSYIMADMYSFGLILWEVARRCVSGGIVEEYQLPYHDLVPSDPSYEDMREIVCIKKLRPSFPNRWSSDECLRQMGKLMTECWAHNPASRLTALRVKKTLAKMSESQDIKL
T8 sequence (O60285 whole entry): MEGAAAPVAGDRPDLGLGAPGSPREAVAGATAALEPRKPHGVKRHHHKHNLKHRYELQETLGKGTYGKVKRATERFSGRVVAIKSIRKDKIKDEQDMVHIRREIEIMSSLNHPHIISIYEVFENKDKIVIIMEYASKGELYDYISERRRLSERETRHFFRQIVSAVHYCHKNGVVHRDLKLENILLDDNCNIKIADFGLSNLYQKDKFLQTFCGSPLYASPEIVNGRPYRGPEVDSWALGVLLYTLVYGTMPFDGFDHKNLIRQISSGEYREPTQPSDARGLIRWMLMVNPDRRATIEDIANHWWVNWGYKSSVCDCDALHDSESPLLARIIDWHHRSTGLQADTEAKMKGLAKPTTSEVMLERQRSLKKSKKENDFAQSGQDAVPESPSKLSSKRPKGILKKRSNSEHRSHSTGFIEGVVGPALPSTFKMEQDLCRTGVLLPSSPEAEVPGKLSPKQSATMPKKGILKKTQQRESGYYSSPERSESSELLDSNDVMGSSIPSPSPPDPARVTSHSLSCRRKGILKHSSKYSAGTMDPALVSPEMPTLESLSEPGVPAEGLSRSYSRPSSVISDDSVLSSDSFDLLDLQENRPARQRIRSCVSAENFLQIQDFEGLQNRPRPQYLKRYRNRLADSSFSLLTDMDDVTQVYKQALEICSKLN
T4 sequence (P36896 24-505): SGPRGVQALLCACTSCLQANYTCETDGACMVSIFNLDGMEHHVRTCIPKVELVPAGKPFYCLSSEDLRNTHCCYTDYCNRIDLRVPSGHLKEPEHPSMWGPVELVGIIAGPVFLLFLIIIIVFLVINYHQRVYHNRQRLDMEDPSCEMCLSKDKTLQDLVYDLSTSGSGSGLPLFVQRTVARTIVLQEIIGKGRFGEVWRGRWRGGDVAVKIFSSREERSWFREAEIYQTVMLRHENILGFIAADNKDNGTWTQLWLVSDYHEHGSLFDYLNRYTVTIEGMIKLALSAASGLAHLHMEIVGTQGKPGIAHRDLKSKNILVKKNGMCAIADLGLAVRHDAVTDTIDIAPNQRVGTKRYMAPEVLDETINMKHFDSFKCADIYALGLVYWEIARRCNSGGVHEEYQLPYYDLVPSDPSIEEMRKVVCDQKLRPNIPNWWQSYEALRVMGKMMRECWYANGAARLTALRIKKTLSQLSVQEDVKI
T16 sequence (P11712 whole entry): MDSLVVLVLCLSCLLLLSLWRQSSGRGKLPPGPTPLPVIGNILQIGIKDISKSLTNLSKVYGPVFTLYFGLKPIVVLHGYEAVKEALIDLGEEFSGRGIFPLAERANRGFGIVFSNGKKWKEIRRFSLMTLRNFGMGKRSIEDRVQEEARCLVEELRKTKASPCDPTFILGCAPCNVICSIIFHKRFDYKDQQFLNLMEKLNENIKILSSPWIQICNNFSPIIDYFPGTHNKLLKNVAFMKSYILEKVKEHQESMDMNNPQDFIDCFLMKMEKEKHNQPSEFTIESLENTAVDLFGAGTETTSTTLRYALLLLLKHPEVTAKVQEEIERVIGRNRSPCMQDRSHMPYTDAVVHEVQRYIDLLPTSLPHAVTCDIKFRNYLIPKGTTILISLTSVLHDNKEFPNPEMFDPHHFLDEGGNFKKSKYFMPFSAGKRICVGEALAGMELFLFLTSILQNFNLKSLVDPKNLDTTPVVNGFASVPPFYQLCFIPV
T7 sequence (Q13131 whole entry): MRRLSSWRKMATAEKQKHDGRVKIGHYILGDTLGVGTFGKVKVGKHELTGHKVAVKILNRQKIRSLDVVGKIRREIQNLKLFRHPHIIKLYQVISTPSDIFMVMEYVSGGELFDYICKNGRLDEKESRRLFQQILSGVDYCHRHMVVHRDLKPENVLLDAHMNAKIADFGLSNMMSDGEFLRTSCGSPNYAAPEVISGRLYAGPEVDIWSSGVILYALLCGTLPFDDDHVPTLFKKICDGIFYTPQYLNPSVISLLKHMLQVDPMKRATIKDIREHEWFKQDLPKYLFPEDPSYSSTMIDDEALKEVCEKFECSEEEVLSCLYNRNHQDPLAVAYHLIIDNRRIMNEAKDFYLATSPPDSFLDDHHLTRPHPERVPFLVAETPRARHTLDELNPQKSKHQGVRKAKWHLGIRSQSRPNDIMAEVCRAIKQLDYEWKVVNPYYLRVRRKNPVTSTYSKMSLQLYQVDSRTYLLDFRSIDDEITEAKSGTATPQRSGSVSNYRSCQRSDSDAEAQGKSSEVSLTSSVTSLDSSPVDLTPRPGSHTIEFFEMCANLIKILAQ
T17 sequence (Q13873 27-1038): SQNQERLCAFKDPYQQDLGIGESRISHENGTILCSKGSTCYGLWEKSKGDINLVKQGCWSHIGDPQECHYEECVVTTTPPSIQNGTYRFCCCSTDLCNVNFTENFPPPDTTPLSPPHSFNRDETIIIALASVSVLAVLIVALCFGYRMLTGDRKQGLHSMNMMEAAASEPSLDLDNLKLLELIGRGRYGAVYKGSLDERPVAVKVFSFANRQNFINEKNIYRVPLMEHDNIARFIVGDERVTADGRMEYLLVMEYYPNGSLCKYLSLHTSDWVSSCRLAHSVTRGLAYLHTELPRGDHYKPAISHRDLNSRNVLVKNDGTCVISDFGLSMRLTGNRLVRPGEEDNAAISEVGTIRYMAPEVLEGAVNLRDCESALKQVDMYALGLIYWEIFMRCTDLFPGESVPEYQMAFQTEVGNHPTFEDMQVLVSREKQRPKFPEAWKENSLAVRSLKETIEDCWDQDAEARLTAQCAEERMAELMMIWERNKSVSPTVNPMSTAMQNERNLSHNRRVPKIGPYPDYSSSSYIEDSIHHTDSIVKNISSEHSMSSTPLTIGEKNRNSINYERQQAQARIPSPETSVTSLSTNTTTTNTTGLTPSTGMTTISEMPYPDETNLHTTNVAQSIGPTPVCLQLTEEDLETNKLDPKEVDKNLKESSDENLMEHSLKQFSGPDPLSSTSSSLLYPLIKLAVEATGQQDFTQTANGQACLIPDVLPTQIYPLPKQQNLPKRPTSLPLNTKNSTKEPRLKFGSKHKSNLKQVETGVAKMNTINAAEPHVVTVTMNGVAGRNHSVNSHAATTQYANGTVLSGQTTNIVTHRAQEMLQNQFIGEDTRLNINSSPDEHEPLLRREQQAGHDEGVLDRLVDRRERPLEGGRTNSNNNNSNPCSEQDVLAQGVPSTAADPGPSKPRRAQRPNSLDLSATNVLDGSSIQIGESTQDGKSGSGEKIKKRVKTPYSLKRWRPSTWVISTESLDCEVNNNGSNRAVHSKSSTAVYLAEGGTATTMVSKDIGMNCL
T10 sequence (P27037 20-513): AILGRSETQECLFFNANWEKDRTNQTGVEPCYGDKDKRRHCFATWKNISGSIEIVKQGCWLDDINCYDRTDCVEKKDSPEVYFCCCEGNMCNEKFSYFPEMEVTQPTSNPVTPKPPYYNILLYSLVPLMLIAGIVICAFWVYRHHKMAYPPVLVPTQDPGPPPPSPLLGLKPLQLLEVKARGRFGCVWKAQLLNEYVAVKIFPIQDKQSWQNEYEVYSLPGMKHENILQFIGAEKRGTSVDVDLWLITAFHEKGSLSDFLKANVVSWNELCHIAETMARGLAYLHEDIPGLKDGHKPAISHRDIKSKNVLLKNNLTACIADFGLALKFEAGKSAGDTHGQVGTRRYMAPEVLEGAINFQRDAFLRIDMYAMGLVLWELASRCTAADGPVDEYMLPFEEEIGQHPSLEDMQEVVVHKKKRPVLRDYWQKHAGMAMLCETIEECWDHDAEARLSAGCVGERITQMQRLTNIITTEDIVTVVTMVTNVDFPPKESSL
T2 sequence (Q96GD4 whole entry): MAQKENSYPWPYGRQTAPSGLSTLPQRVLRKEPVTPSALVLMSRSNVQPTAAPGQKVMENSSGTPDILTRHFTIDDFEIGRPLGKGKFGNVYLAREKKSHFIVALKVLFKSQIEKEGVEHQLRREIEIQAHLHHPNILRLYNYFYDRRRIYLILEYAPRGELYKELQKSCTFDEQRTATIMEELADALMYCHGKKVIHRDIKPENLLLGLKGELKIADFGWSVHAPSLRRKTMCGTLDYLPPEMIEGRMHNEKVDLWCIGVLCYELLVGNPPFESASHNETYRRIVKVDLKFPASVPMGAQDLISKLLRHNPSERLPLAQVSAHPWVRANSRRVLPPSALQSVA
T18 sequence (Q13882 whole entry): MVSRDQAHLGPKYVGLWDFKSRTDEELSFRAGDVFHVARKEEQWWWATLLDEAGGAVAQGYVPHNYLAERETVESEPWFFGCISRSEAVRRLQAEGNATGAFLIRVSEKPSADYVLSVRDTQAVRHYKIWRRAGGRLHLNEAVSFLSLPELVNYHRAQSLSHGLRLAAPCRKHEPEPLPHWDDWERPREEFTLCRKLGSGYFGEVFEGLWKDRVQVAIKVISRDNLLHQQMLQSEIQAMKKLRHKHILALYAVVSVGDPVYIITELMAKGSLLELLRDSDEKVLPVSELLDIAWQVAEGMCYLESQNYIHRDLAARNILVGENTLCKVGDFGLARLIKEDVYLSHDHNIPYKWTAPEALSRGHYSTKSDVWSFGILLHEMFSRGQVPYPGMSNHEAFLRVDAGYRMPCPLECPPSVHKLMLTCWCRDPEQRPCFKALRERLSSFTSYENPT

`COc1cc2ncnc(Nc3cccc(Cl)c3F)c2cc1OCCON1CCN(C)CC1` [Compound 9, N-(3-Chloro-2-fluorophenyl)-7-methoxy-6-(2-((4-methylpiperazin-1-yl)oxy)ethoxy)quinazolin-4-amine] showed a remaining binding at 1 µM [1] of 6.7%, a fraction unbound at 6 h, 5 μM ([2]; CD-1, mouse, brain homogenate, read-out: fu,brain% / %Unboundbrain) of 0.0405 and a recovery at 6 h, 5 μM [2, 23] of 93%. It also gave a remaining at 6 h, 5 μM [2, 23] of 92.6%, a fraction unbound at 6 h, 5 μM ([2]; CD-1, mouse, mouse brain homogenate, read-out: %Unboundbrain (converted)) of 0.0405 and a fraction unbound at 6 h, 5 µM ([2]; mouse, brain homogenate, read-out: fu,brain% / %Unboundbrain) of 0.041. For the same compound, the remaining binding at 1 µM [3] was 84%, the remaining binding at 1 µM [4] was 100% and the remaining binding at 1 µM [5] was 86%. The remaining binding at 1 µM [6] was 30%, the remaining binding at 1 µM [7] was 100% and the remaining binding at 1 µM [8] was 100%. It also gave a remaining binding at 1 µM [9] of 100%, a remaining binding at 1 µM [10] of 8.9% and a remaining binding at 1 µM [11] of 100%. The remaining binding at 1 µM [12] was 93%, the remaining binding at 1 µM [13] was 94% and the Kp at 24 h ([14]; read-out: Kp brain (AUCinf)) was 0.77. For the same compound, the Kp uu at 24 h ([14]; read-out: Kp,uu brain (AUCinf)) was 0.45, the remaining binding at 1 µM [15] was 46% and the remaining binding at 1 µM [16] was 12%. The remaining binding at 1 µM [17] was 79%, the IC50 [18] was greater than 30 µM and the remaining binding at 1 µM [19] was 99%. For the same compound, the remaining binding at 1 µM [20] was 94%, the remaining binding at 1 µM [21] was 79% and the remaining binding at 1 µM [22] was 64%.
